{"source": "patent US5976813A", "about": "“Continuous format high throughput screening” (priority 1997, dated 1999)", "key": {"[1]": {"system": "VanA", "settings": "statement on known inhibitor used as positive control; cited from earlier work"}, "[2]": {"biological_target": "S. Cerevisiae Elongation Factor 3 (Saccharomyces cerevisiae, UniProt P16521)", "sequence (P16521 whole entry)": "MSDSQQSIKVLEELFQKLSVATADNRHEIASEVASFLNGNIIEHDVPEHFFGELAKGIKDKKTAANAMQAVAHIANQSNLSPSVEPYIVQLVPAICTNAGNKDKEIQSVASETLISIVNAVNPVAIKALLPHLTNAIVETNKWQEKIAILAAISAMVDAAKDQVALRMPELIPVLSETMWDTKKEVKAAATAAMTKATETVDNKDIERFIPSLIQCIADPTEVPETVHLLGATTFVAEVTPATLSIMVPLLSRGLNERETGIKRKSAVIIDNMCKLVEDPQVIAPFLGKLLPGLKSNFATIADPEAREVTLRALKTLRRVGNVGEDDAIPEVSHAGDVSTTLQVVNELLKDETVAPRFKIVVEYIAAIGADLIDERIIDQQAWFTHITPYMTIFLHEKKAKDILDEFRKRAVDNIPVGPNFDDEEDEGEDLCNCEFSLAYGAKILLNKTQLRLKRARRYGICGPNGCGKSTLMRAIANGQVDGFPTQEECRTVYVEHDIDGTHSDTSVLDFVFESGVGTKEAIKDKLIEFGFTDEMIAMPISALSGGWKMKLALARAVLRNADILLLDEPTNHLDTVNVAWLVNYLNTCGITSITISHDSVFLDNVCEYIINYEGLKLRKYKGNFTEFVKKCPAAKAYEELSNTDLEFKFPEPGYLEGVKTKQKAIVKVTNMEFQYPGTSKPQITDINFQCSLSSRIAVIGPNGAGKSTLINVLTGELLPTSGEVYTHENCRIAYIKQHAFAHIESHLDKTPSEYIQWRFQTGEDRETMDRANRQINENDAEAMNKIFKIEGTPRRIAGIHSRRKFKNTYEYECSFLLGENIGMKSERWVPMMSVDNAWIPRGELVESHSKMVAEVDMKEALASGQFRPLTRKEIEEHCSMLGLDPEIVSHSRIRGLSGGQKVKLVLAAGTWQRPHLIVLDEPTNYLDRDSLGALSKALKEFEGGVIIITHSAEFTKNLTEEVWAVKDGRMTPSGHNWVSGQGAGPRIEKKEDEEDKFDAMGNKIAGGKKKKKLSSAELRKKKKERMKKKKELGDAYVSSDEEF", "experiment": "Two-step gel assay for phosphate generated by EF-3 ATPase activity stimulated by ribosome binding", "type": "biochemical", "settings": "inhibitor amounts 5 picomole to 200 picomole; FIG. 7", "protocol": "A two-step gel assay for detecting phosphate generated by S. Cerevisiae Elongation Factor 3 ATPase activity stimulated by Ribosomes binding\nWhen fungal elongation factor 3 (EF-3) interacts with ribosomes, […] is stimulated. The inventors have applied CF-HTS to the assay for this activity.\nAn enzyme gel containing EF-3 (a highly temperature sensitive enzyme) and yeast ribosomes in EF-3 assay buffer was prepared. A substrate gel containing 1 mM ATP in assay buffer was also prepared. Both gels contained 2% dimethyl sulfoxide in low melting agarose (Gibco BRL), and were prepared at 37° C. and allowed to set for 30 minutes at 4° C. Serial dilutions of Poly-L-lysine, an inhibitor of EF-3 used as a control sample, was spotted onto PVDC film and dried (sample matrix). The assay was then conducted as in Example 1 by pre-incubating the enzyme gel with the inhibitors on the sample matrix. Then the enzyme gel was placed in contact with the substrate gel for 20 minutes. As in Example 1, the enzyme and substrate gels were stained with Malachite green/Ammonium Molybdate color development cocktail. Then the enzyme gel was imaged with a CCD camera. The inhibitor spots appear as clearer zones in a green background. FIG. 7 illustrates color development on the gel where inhibitor amounts varied from 5 picomole to 200 picomole."}, "[3]": {"system": "IL-8a receptor", "experiment": "Gel/filter CF-HTS control: ^125 I-IL-8 binding to HEK cells expressing the IL-8a receptor", "settings": "^125 I-IL-8 in agarose gel diffusing through cell matrix; FIG. 12", "protocol": "HEK cells (ATCC, Bethesda, M.D.) expressing the IL-8a receptor were plated on a 75 mm diameter transwell membrane filter (Corning Costar Corp, Cambridge, Mass.) at a density of about 20 million cells per plate. They were allowed to attach to the membrane filter overnight in buffer (RPMI from Life Technologies, Grand Island, N.Y.) containing 10 mM Hepes (Sigma, St Louis, Mo.) at pH 7.2 and 37° C. After the cells were attached to the filter, the media was removed, and the cells were washed with fresh buffer to remove any unattached cells. The filters were inverted cell-side down and placed at an angle to allow excess media to drain, and then dried for 20 minutes. This was timed so that the cell matrix could be immediately used in the assay described below.\nThe ligand matrix was prepared by soaking ^125 I labeled IL-8 (Amersham, Inc., Arlington Heights, Ill.) into an agarose gel made by mixing 0.1 g agarose with 10 ml buffer, heating until molten, and then casting in a 8×7×0.075 cm gel apparatus. The gels were soaked overnight at RT while slowly mixing on a rotating platform (New Brunswick Scientific Co., Inc, Edison, N.J.). After soaking, the gels were dried for 20 minutes at RT just prior to use. This was timed so that the gel could be immediately used in the assay. […]"}}}
{"molecule": "N[C@@H]1CONC1=O", "note": "[D-cycloserine]", "values": [{"measurement": "inhibition of VanA", "setting": "[1]", "result": "inhibits VanA in a dose-dependent manner"}]}
{"molecule": "Poly-L-lysine", "values": [{"measurement": "inhibition of EF-3 in gel assay (clearer zones in green background)", "setting": "[2]", "result": "dose dependent signal of the inhibitor"}]}
{"molecule": "^125 I-IL-8: ^125 I labeled IL-8 (Amersham)", "values": [{"measurement": "binding to HEK cells expressing the IL-8a receptor", "setting": "[3]", "result": "dose response"}]}
